Source: patent US6084074A, “Stabilized aqueous liquid preparations of blood coagulation factor XIII” (Centeon Pharma GmbH, priority 1995, dated 2000)
Values belong to the compound of their own block, whether it stands above or below them.

How the values were obtained:
[1] = system: human blood coagulation factor XIII; assay: optimum concentration of stabilizers: residual factor XIII activity after 60° C. for 30 minutes (Example 1); assay type: physicochemical
Excerpt: As for the measuring methods of factor XIII activity, fibrin formation, transglutaminase activity measurement, and immunologic measurement of antigen amount can be mentioned. Herein, the dansylcadaverine method (Nishida J., et al. Thromb. Res., vol. 36 pp. 123-131 (1984)) was adopted which can determine quantitatively the active factor XIII with high accuracy. Dansylcadaverine (purchased from YATRON) is a fluorescent amine which is the substrate of factor XIII, and forms dansylcadaverine-casein complex with casein by the action of factor XIII; the complex is separated by gel-filtration after the reaction and the factor XIII activity can be determined by the fluorescence intensity of the complex. The factor XIII activity is expressed by units; one unit is the amount of factor XIII which is contained in one milliliter of normal human plasma.
Optimum concentration of the present stabilizers was investigated.
To factor XIII produced according to the recombinant DNA technology as disclosed in DE 3804890 Al and incorporated by reference herein, (adjusted to the final titer of 100 units/ml with the water for injection according to the Pharmacopoeia of Japan) was added galactose, sucrose, D-sorbitol, sodium L-glutamate, sodium L-aspartate or L-histidine, and the mixture was warmed in a hot water bath at 60° C. for 30 minutes and then the activity of factor XIII was determined. Residual activity rate (%) of factor XIII was calculated, defining as 100% factor XIII activity of the preparation wherein factor XIII solution was adjusted to a titer of 100 units/ml.

[2] = system: factor XIII prepared by recombinant DNA technology; assay: storage stabilizer effect on factor XIII prepared by recombinant DNA technology; assay type: physicochemical, human

Compound: OC[C@@H](O)[C@@H](O)[C@H](O)[C@@H](O)CO [D-Sorbitol]
effective concentration of stabilizer [1]: 1.25-40 w/v %
Residual Activity Rate ([1]; additive conc. 1.25 w/v %): 73.8%
Residual Activity Rate ([1]; additive conc. 2.5 w/v %): 73.9%
Residual Activity Rate ([1]; additive conc. 5.0 w/v %): 74.5%
Residual Activity Rate ([1]; additive conc. 10 w/v %): 94.0%
Residual Activity Rate ([1]; additive conc. 15 w/v %): 98.4%
Residual Activity Rate ([1]; additive conc. 20 w/v %): 96.0%
Residual Activity Rate ([1]; additive conc. 40 w/v %): 86.9%

Compound: NCC(=O)O [Glycine]
effect as storage stabilizer (in words) [2]: ineffective

Residual Activity Rate ([1]; additive conc. 0.125 w/v %): 62.2%
Residual Activity Rate ([1]; additive conc. 0.25 w/v %): 71.6%
Residual Activity Rate ([1]; additive conc. 0.5 w/v %): 78.4%
Residual Activity Rate ([1]; additive conc. 1.0 w/v %): 97.4%
Residual Activity Rate ([1]; additive conc. 2.0 w/v %): 65.3%
Compound: N[C@@H](Cc1c[nH]cn1)C(=O)O [L-Histidine, L-histidine]

Compound: N[C@@H](CC(=O)[O-])C(=O)[O-].[Na+].[Na+] [Sodium L-aspartate, sodium L-aspartate]
Residual Activity Rate ([1]; additive conc. 0.125 w/v %): 83.3%
Residual Activity Rate ([1]; additive conc. 0.25 w/v %): 80.9%
Residual Activity Rate ([1]; additive conc. 0.5 w/v %): 93.3%
Residual Activity Rate ([1]; additive conc. 1.0 w/v %): 101.1%
Residual Activity Rate ([1]; additive conc. 2.0 w/v %): 66.5%
Residual Activity Rate ([1]; additive conc. 5.0 w/v %): 58.8%
Residual Activity Rate ([1]; additive conc. 10 w/v %): 55.4%

Compound: N[C@@H](CCC(=O)[O-])C(=O)[O-].[Na+].[Na+] [Sodium L-glutamate, sodium L-glutamate]
Residual Activity Rate ([1]; additive conc. 0.125 w/v %): 76%
Residual Activity Rate ([1]; additive conc. 0.25 w/v %): 71.1%
Residual Activity Rate ([1]; additive conc. 0.5 w/v %): 98.6%
Residual Activity Rate ([1]; additive conc. 1.0 w/v %): 92.5%
Residual Activity Rate ([1]; additive conc. 2.0 w/v %): 87.8%
Residual Activity Rate ([1]; additive conc. 5.0 w/v %): 79.4%
Residual Activity Rate ([1]; additive conc. 10 w/v %): 65.3%

effective concentration of stabilizer [1]: 1.25-40 w/v %
Residual Activity Rate ([1]; additive conc. 1.25 w/v %): 86.7%
Residual Activity Rate ([1]; additive conc. 2.5 w/v %): 88.6%
Residual Activity Rate ([1]; additive conc. 5.0 w/v %): 90.0%
Residual Activity Rate ([1]; additive conc. 10 w/v %): 99.0%
Residual Activity Rate ([1]; additive conc. 15 w/v %): 100.0%
Residual Activity Rate ([1]; additive conc. 20 w/v %): 96.2%
Residual Activity Rate ([1]; additive conc. 40 w/v %): 75.7%
Compound: OC[C@H]1O[C@@](CO)(O[C@H]2O[C@H](CO)[C@@H](O)[C@H](O)[C@H]2O)[C@@H](O)[C@@H]1O [Sucrose]

effect as storage stabilizer (in words) [2]: ineffective
Compound: C[C@H](N)C(=O)O [alanine]

effect as storage stabilizer (in words) [2]: ineffective
Compound: NC(=O)CC[C@H](N)C(=O)O [glutamine]

Compound: O=C(O)[C@@H]1C[C@@H](O)CN1 [hydroxyproline]
effect as storage stabilizer (in words) [2]: ineffective

Compound: galactose
effective concentration of stabilizer [1]: 1.25-40 w/v %

Compound: glucose
effect as storage stabilizer (in words) [2]: ineffective
